Assay [1] has as its system MCF-7. Kind of assay: MTT cell viability assay. The assay is classed as cell-based, human. The settings on record: 72 h. The method in brief:
(§1)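 Cancer lines MCF-7 and MDA-MB-231 and non-tumour MCF-10A cells were treated 72 h with compound at 0.1–500 µM. Viability read by MTT; IC50 calculated from percent of untreated control.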

Assay [2] relates to MDA-MB-231. The experiment in a line: MTT cell viability assay. The assay is classed as cell-based, human. The conditions noted are these: 72 h. Summed up:
as §1

The test system of assay [3] is MDA-MB-231 cells. Kind of assay: TUNEL assay (DNA damage/apoptosis). The assay is classed as cell-based, human. The conditions noted are these: 30 µM, 24 h. As for the experimental part:
The terminal deoxynucleotidyl transferase dUTP nick end labeling (TUNEL) assay was performed to detect cell apoptosis, following the manufacturer’s protocols (CF™488A TUNEL Assay Apoptosis Detection Kit, Biotium, Hayward, CA, USA), with some modifications, as previously indicated. Nuclei staining was performed using DAPI solution (0.2 µg/mL, Sigma Aldrich, Milan, Italy). A fluorescence microscope (Leica DM 6000) was used for the cell examinations at 20× magnification. LAS-X software 3.5.7.23225 was employed for the acquisition and processing of the images, which were representative of three independent experiments.

Assay [4] deals with T1, human topoisomerase I (hTopoI) (Homo sapiens, UniProt P11387).
T1 construct: purchased TopoGEN, Port Orange, FL, USA
T1 sequence (P11387 1-765): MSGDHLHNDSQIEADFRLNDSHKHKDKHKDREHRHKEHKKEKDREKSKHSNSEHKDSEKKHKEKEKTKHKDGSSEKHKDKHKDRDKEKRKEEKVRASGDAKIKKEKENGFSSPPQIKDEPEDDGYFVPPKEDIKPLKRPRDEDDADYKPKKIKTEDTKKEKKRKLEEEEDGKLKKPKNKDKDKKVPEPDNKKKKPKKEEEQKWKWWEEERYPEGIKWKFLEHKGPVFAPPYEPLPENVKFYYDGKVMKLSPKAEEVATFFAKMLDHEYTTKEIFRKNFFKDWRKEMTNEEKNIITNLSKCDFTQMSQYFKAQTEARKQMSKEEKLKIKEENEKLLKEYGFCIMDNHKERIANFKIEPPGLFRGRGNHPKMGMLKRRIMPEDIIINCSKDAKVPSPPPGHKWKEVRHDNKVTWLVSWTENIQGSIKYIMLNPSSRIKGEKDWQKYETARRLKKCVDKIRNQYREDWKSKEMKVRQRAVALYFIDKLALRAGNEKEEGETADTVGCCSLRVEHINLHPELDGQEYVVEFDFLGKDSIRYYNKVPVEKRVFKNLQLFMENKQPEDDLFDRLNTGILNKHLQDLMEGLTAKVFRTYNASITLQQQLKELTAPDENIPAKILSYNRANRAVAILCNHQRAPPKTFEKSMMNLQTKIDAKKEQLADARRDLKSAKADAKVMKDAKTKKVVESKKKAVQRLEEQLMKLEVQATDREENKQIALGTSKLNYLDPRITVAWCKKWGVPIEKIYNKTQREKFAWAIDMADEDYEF
Kind of assay: Human topoisomerase I relaxation assay. The assay is classed as biochemical. The conditions noted are these: 1 µM, supercoiled pHOT1 DNA. On the procedure: The human topoisomerase I relaxation assay was performed as reported in [86]. Shortly, the recombinant human topo I (TopoGEN, Port Orange, FL, USA) was incubated with the super-coiled pHOT1, in the presence or not of the tested compounds, at the indicated concentrations. The reaction products were then allowed to separate through the agarose gel electrophoresis, and ethidium bromide-stained DNA was visualized under UV light.

Assay [5] has as its system TNF-α expression in MDA-MB-231 cells. Kind of assay: Immunofluorescence, TNF-α expression. The settings on record: 15 µM, 24 h. The assay is classed as cell-based, human. On the procedure: After a PBS wash, cells were fixed using cold methanol (15 min at −20 °C) and incubated overnight at 4 °C with the primary antibodies raised against NF-κB, iNOS, TNF-α, and COX-1 and 2 (Santa Cruz Biotechnology Inc., Santa Cruz, CA, USA) diluted in BSA 2%, as previously described. […] DAPI (Sigma Aldrich, Milan, Italy) 0.2 µg/mL was added for 10 min for nuclei counterstaining. A fluorescence microscope (Leica DM 6000) was used for visualizing images, and LAS-X software 3.5.7.23225 was used for acquisition and processing.

The nature of assay [6]: DPPH radical scavenging assay. The assay is classed as biochemical. Summed up: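 Complexes tested at 10, 25, 50, 100 and 200 µg/mL against DPPH radical, absorbance read at 517 nm. Inhibition % calculated relative to DPPH control absorbance, with IC50 derived from these percentages. Trolox served as positive control; caffeine and theophylline as references.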

Experimental findings from publication PMC10931745 (International Journal of Molecular Sciences, 2024) are described below.

In the case of `Cn1c(=O)c2c(n(C)[c]([Au-][I])[n+]2CC(O)c2ccccc2)n(C)c1=O` (racemic) [AuL1, 1,3,7-Trimethylxanthin-9-[(2-hydroxy-2-phenyl)ethyl-8-ylidene]Au(I) Iodide], the IC50 in assay [1] was 73.8 ± 1.1 µM; in assay [2], 14.7 ± 1.1 µM; in assay [6], above 500 µM. Further, in assay [3], the “DNA damage (green nuclear fluorescence, TUNEL)” value is given as “formation of a green nuclear fluorescence”. The “Inhibition of hTopo I supercoil relaxing activity” value in assay [4] is given as “totally inhibited”. Also, the “Reduction in TNF-α expression (fluorescence quantification)” value in assay [5] was “about 60%”.
Regarding `CC(=O)[O][Ag-][c]1n(C)c2c(c(=O)n(C)c(=O)n2C)[n+]1C1CCCCC1O` (stereo not drawn) [AgL2OAc, 1,3,7-Trimethylxanthin-9-[cyclohexan-2-ol-8-ylidene]Ag(I) Acetate], the results for the IC50 in assay [1], in assay [2] and in assay [6] were 28.7 ± 1 µM, 19.4 ± 1 µM and above 500 µM, respectively. Further, the “DNA damage (green nuclear fluorescence, TUNEL)” value in assay [3] is reported as “formation of a green nuclear fluorescence”. In addition, the “Inhibition of hTopo I supercoil relaxing activity” value in assay [4] is “totally inhibited”. In addition, the “Reduction in TNF-α expression (fluorescence quantification)” value in assay [5] was around 50%.
